Measurements published in patent US20070066672A1, “Benzimidazole derivatives and use thereof as peptide deformylase inhibitors” (Arpida A/S, priority 2003, published 2007).
pIC50: −log10 of the molar value.

What was measured:
[1] = target: T1, Peptide Deformylase (PDF) (Escherichia coli, UniProt P0A6K3); assay: Bacterial peptide deformylase (PDF) assay, colorimetric cell free, enzyme from E. coli; assay type: biochemical
T1 construct: made in house
Source text: (§1) To find inhibitors of Peptide Deformylase (PDF), a colorimetric cell free assay for measuring the enzymatic activity of PDF has been adapted to the microtiter plate format (96 wells). The assay comprises three components, purified PDF, f-Met-Ala as substrate and TNBS as the detecting agent of primary amino groups. The resulting TNP_NH-Met-Ala sulfite complex can be detected at 420 nm. PDF enzymes, containing Fe^2+ as the native metal, are purified and are stabilized by the addition of tris(2-carboxyethyl)phosphine (TCEP).
(§2) The IC50 value of a compound of the invention as a bacterial PDF inhibitor was determined using the following assay.
(§3) Assay buffer 0.1 M MOPS pH was adjusted to 7.2 with NaOH, containing 0.25 M NaCl, 100 μg/mL catalase and 1 mg/mL BSA.
(§4) E. coli enzyme (2.5 mg/ml) 10 μl+290 μl Assay buffer, 1 μl per ml enzyme mix. S. aureus (15 mg/ml) 10 μl+990 μl Assay buffer, 0.3 μl per ml enzyme mix.
(§5) Substrate mix: 10 mM f-Met-Ala was made up from 200 mM f-Met-Ala in methanol with assay buffer.
(§6) TNBS solution: Freshly dilute 1 M TNBS stock solution diluted 1:10 with water.
(§7) Buffer C: 0.5 M borate buffer adjusted to pH 9.5 with NaOH.
(§8) Buffer D: 0.2 ml of freshly prepared 0.5 M Na2SO3 was mixed with 9.8 mL of 0.5M NaH2PO4.
(§9) Inhibitor solution: 2 mM Sodium 4-(hydroxymercurio)benzoate in assay buffer.
(§10) Compound mix: Compound of formula I dissolved in DMSO in a 10 mg/mL stock solution. Further dilutions were made in DMSO in the concentration range between 0.05 to 100 mM.
(§11) The assay was performed in a 96 Microtiter plate containing test compound. To each well containing test compound mix was added 75 microliter of enzyme mix from E. coli followed by the addition of 25 microliter of substrate mix. The resulting mix was incubated for 30 minutes at room temperature with shaking. TNBS solution (50 microliter/well) was added and the resulting mixture was incubated for 15 minutes under shaking. Buffer C was then added (20 microliter/well). After incubating at room temperature for 15 minutes under shaking, buffer D was added (50 microliter/well). The optical […] was then measured at 420 nm, thereby determining the IC50 value.

[2] = target: T2, Peptide Deformylase (PDF) (Staphylococcus aureus, UniProt P68826); assay: Bacterial peptide deformylase (PDF) assay, colorimetric cell free, enzyme from S. aureus; assay type: biochemical; conditions: f-Met-Ala substrate, TNBS detection at 420 nm
T2 construct: made in house
T2 sequence (P68826 1-183): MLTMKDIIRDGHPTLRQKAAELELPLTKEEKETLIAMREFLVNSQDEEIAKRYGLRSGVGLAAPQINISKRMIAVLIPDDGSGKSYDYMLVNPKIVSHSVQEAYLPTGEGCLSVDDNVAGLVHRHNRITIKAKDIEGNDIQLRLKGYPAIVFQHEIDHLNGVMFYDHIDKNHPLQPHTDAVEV
Source text: as §1, §2, §3, §4, §5, §6, §7, §8, §9, §10, §11
The assay was repeated using enzyme mix from S. aureus.

T1 sequence (P0A6K3 whole entry): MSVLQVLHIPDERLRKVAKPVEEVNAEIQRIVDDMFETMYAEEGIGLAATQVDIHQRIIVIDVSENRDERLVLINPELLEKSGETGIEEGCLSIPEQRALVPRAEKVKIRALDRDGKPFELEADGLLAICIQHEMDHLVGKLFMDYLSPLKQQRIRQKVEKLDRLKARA

| Compound | pIC50 [1] | pIC50 [2] |
| --- | --- | --- |
| CCC(NC(=O)CCS)c1nc2cc(C(=O)NCC(=O)OC)ccc2n1C1CC1 (stereo not drawn) [Example 1, ({1-Cyclopropyl-2-[1-(3-mercapto-propionylamino)-propyl]-1H-benzoimidazole-5-carbonyl}-amino)-acetic acid methyl ester] | 4.19 | 4.34 |
| COC(=O)CNC(=O)c1ccc2c(c1)nc(C(Cc1ccccc1)NC(=O)CCS)n2Cc1ccc(Cl)cc1 (stereo not drawn) [Example 2, ({1-(4-Chloro-benzyl)-2-[1-(3-mercapto-propionylamino)-2-phenyl-ethyl]-1H-benzoimidazole-5-carbonyl}-amino)-acetic acid methyl ester] | 4.66 | 5.21 |
| COC(=O)CNC(=O)c1ccc2c(c1)nc(C(CCSC)NC(=O)CCC(=O)O)n2Cc1ccccc1 (stereo not drawn) [Example 3, N-{1-[1-Benzyl-5-(methoxycarbonylmethyl-carbamoyl)-1H-benzoimidazol-2-yl]-3-methylsulfanyl-propyl}-succinamic acid] | 4.10 | 4.50 |
| CCCCn1c(C(Cc2ccccc2)NC(=O)CCC(=O)O)nc2cc(C(=O)NCC(=O)OC)ccc21 (stereo not drawn) [Example 4, N-{1-[1-Butyl-5-(methoxycarbonylmethyl-carbamoyl)-1H-benzoimidazol-2-yl]-2-phenyl-ethyl}-succinamic acid] | 5.55 | 6.00 |
| COC(=O)CNC(=O)c1ccc2c(c1)nc(C(Cc1ccccc1)NC(=O)CCC(=O)O)n2Cc1ccco1 (stereo not drawn) [Example 5, N-{1-[1-Furan-2-ylmethyl-5-(methoxycarbonylmethyl-carbamoyl)-1H-benzoimidazol-2-yl]-2-phenyl-ethyl}-succinamic acid] | 4.89 | 5.80 |
| COC(=O)CNC(=O)c1ccc2c(c1)nc(C(Cc1ccccc1)NC(=O)CCC(=O)O)n2Cc1ccc(Cl)cc1 (stereo not drawn) [Example 6, N-{1-[1-(4-Chloro-benzyl)-5-(methoxycarbonylmethyl-carbamoyl)-1H-benzoimidazol-2-yl]-2-phenyl-ethyl}-succinamic acid] | 5.89 | 7.03 |
| COC(=O)CNC(=O)c1ccc2c(c1)nc(C(CCc1ccccc1)NC(=O)CCC(=O)O)n2C1CC1 (stereo not drawn) [Example 7, N-{1-[1-Cyclopropyl-5-(methoxycarbonylmethyl-carbamoyl)-1H-benzoimidazol-2-yl]-3-phenyl-propyl}-succinamic acid] | 5.59 | 5.57 |
| COC(=O)CNC(=O)c1ccc2c(c1)nc(C(CCc1ccccc1)NC(=O)CCC(=O)O)n2CC1CCCCC1 (stereo not drawn) [Example 8, N-{1-[1-Cyclohexylmethyl-5-(methoxycarbonylmethyl-carbamoyl)-1H-benzoimidazol-2-yl]-3-phenyl-propyl}-succinamic acid] | 4.53 | 4.82 |
| COC(=O)CNC(=O)c1ccc2c(c1)nc(C(CCc1ccccc1)NC(=O)CCC(=O)O)n2Cc1ccccc1Cl (stereo not drawn) [Example 9, N-{1-[1-(2-Chloro-benzyl)-5-(methoxycarbonylmethyl-carbamoyl)-1H-benzoimidazol-2-yl]-3-phenyl-propyl}-succinamic acid] | 4.56 | 4.74 |
| CCC(NC(=O)CCC(=O)O)c1nc2cc(C(=O)NCC(=O)OC)ccc2n1C1CC1 (stereo not drawn) [Example 10, N-{1-[1-Cyclopropyl-5-(methoxycarbonylmethyl-carbamoyl)-1H-benzoimidazol-2-yl]-propyl}-succinamic acid] | 5.25 | 7.64 |
| CCC(NC(=O)CCC(=O)O)c1nc2cc(C(=O)NCC(=O)OC)ccc2n1Cc1ccco1 (stereo not drawn) [Example 11, N-{1-[1-Furan-2-ylmethyl-5-(methoxycarbonylmethyl-carbamoyl)-1H-benzoimidazol-2-yl]-propyl}-succinamic acid] | 5.55 | 5.85 |
| CCC(NC(=O)CCC(=O)O)c1nc2cc(C(=O)NCC(=O)OC)ccc2n1Cc1ccccc1 (stereo not drawn) [Example 12, N-{1-[1-Benzyl-5-(methoxycarbonylmethyl-carbamoyl)-1H-benzoimidazol-2-yl]-propyl}-succinamic acid] | 5.32 | 7.17 |
| COC(=O)CNC(=O)c1ccc2c(c1)nc(C(CC(C)C)NC(=O)CCC(=O)O)n2C1CC1 (stereo not drawn) [Example 13, N-{1-[1-Cyclopropyl-5-(methoxycarbonylmethyl-carbamoyl)-1H-benzoimidazol-2-yl]-3-methyl-butyl}-succinamic acid] | 5.40 | 6.92 |
| CCCCn1c(C(CC(C)C)NC(=O)CCC(=O)O)nc2cc(C(=O)NCC(=O)OC)ccc21 (stereo not drawn) [Example 14, N-{1-[1-Butyl-5-(methoxycarbonylmethyl-carbamoyl)-1H-benzoimidazol-2-yl]-3-methyl-butyl}-succinamic acid] | 5.14 | 5.59 |
| COC(=O)CNC(=O)c1ccc2c(c1)nc(C(CC(C)C)NC(=O)CCC(=O)O)n2Cc1ccccc1 (stereo not drawn) [Example 15, N-{1-[1-Benzyl-5-(methoxycarbonylmethyl-carbamoyl)-1H-benzoimidazol-2-yl]-3-methyl-butyl}-succinamic acid] | 5.48 | 5.40 |
| COC(=O)CNC(=O)c1ccc2c(c1)nc(C(Cc1cccc3ccccc13)NC(=O)CCC(=O)O)n2Cc1ccccc1 (stereo not drawn) [Example 30, N-{1-[1-Benzyl-5-(methoxycarbonylmethyl-carbamoyl)-1H-benzoimidazol-2-yl]-2-naphthalen-1-yl-ethyl}-succinamic acid] | 5.15 |  |
| COC(=O)CNC(=O)c1ccc2c(c1)nc(C(CC(C)C)NC(=O)CCC(=O)NO)n2C1CC1 (stereo not drawn) [Example 33, ({1-Cyclopropyl-2-[1-(3-hydroxycarbamoyl-propionylamino)-3-methyl-butyl]-1H-benzoimidazole-5-carbonyl}-amino)-acetic acid methyl ester] |  | 6.30 |
| CCCCn1c(C(CC(C)C)NC(=O)CCC(=O)NO)nc2cc(C(=O)NCC(=O)OC)ccc21 (stereo not drawn) [Example 34, ({1-Butyl-2-[1-(3-hydroxycarbamoyl-propionylamino)-3-methyl-butyl]-1H-benzoimidazole-5-carbonyl}-amino)-acetic acid methyl ester] |  | 5.64 |
| COC(=O)CNC(=O)c1ccc2c(c1)nc(C(CC(C)C)NC(=O)CCC(=O)NO)n2Cc1ccccc1 (stereo not drawn) [Example 35, ({1-Benzyl-2-[1-(3-hydroxycarbamoyl-propionylamino)-3-methyl-butyl]-1H-benzoimidazole-5-carbonyl}-amino)-acetic acid methyl ester] |  | 6.09 |
| COC(=O)CNC(=O)c1ccc2c(c1)nc(C(CCSC)NC(=O)CCC(=O)NO)n2C1CC1 (stereo not drawn) [Example 36, ({1-Cyclopropyl-2-[1-(3-hydroxycarbamoyl-propionylamino)-3-methylsulfanyl-propyl]-1H-benzoimidazole-5-carbonyl}-amino)-acetic acid methyl ester] |  | 5.82 |
| COC(=O)CNC(=O)c1ccc2c(c1)nc(C(CCSC)NC(=O)CCC(=O)NO)n2CC1CCCCC1 (stereo not drawn) [Example 37, ({1-Cyclohexylmethyl-2-[1-(3-hydroxycarbamoyl-propionylamino)-3-methylsulfanyl-propyl]-1H-benzoimidazole-5-carbonyl}-amino)-acetic acid methyl ester] | 6.50 |  |
| COC(=O)CNC(=O)c1ccc2c(c1)nc(C(Cc1ccccc1)NC(=O)CCC(=O)NO)n2Cc1ccco1 (stereo not drawn) [Example 39, ({1-Furan-2-ylmethyl-2-[1-(3-hydroxycarbamoyl-propionylamino)-2-phenyl-ethyl]-1H-benzoimidazole-5-carbonyl}-amino)-acetic acid methyl ester] | 5.82 |  |
| COC(=O)CNC(=O)c1ccc2c(c1)nc(C(Cc1cccc3ccccc13)NC(=O)CCC(=O)NO)n2CCc1cccs1 (stereo not drawn) [Example 44, {[2-[1-(3-Hydroxycarbamoyl-propionylamino)-2-naphthalen-1-yl-ethyl]-1-(2-thiophen-2-yl-ethyl)-1H-benzoimidazole-5-carbonyl]-amino}-acetic acid methyl ester] | 5.51 |  |
| CCCCn1c(C(Cc2cccc3ccccc23)NC(=O)CCC(=O)NO)nc2cc(C(=O)NCC(=O)OC)ccc21 (stereo not drawn) [Example 45, ({1-Butyl-2-[1-(3-hydroxycarbamoyl-propionylamino)-2-naphthalen-1-yl-ethyl]-1H-benzoimidazole-5-carbonyl}-amino)-acetic acid methyl ester] | 5.24 |  |
